Measured values published in patent US10208029B2, “Photoacid compositions having extended lifetime of proton dissociation state” (University of Central Florida Research Foundation, Inc., priority 2013, dated 2019).

How the values were obtained:
[1] = Reversibility of photo-induced proton release; format: physicochemical; conditions: PBS buffer with a pH of 7.4
Text: Referring now to FIGS. 6A-6QQ, the structures of 43 photoacids designed based on FIG. 3A including the photoacids 1 and 40 are shown. All of them have been synthesized. […]. Analogs of photoacid 1 have been extensively studied. Electron-donating groups (-Me and —OMe) on the phenolic moiety increase the stability of the photoacid towards hydrolysis and faster the reverse reaction rate. Photoacids with extended conjugated structures can absorb light and thus function at longer wavelengths than photoacid 1. For example, photoacid 20 has a maximum absorption at 538 nm in 95% ethanol solution, which is about 100 nm longer than that of photoacid 1. Photoacids 10, 17 and 39 have acrylate moieties. They can be used to make photoacid polymers via chain-growth polymerization or thiol-ene reaction. […]. […] In photoacid 34, a benzothiazolium is used as the EA part since it improves the reversibility of the photoreaction.

[2] = pH of aqueous solution of photoacid 1 in the dark, under 419 nm irradiation and after light off; format: physicochemical
Text: Photoacid 1 shown in FIG. 2B as MEH comprises an example disclosed PAH comprising a protonated photochromic merocyanine (MEH) with a propyl sulfonate group on the nitrogen of the indoline moiety. It was discovered that photoacid 1 can reversibly change the proton concentration of its solution by over 100 times.
In an aqueous solution, the MEH form of 1 is predominantly at room temperature in the dark, which was proven by UV-Vis and NMR spectroscopy.
Proton dissociation of the cis-MEH produces cis-ME, which undergoes a nucleophilic ring closing reaction to yield the product shown as SP in FIG. 2B and a proton. The product formed by the ring closing process has a stabilized proton dissociation state.
When the light was turned off, the pH value increased quickly to ˜4.5 in ˜1 min, gradually returning to its original level in ˜5 min. This cycle can be repeated many times. Therefore, the proton concentration in a solution having photoacid 1 can be simply controlled by switching a visible light source on and off.

In the case of O=S(=O)([O-])CCC[n+]1c(/C=C/c2cccc3cn[nH]c23)sc2ccccc21 [photoacid 34], the reversible proton release [1] is reported as “can reversibly release a proton”.
For CC1(C)C(/C=C/c2ccccc2O)=[N+](CCCS(=O)(=O)[O-])c2ccccc21 [photoacid 1], the “reversible change of proton concentration of its solution” value [2] was “over 100 times”, the “pH value of aqueous solution” value ([2]; 5.88×10^−4 M aqueous solution, 25° C., dark) was 5.5 and the pH under irradiation ([2]; aqueous solution irradiated with 419 nm light) was 3.3. The “pH drop upon irradiation” value ([2]; aqueous solution, 419 nm light) was “more than 2 units”, the “time to return to original pH level after light off” value ([2]; aqueous solution, dark) was ~5 min and the pKa ([2]; calculated from pH of 5.88×10^−4 M aqueous solution at 25° C., dark state) was 7.8. The “pH value after the light was turned off” value ([2]; ~1 min after light off) was ~4.5.
